Measurements reported in patent publication US7906498B2, “Cholesterol as an antibiotic for Streptococcus pneumoniae” (priority 2005, dated 2011).

Assays:
[1] = test system: encapsulated S. pneumoniae; experiment: Bacterial load in infected rabbit corneas; format: in vivo, Streptococcus pneumoniae; conditions: topical application
Experimental: Sacrifice of the rabbits occurred immediately following the last SLE time (48 hours post-infection) to avoid unnecessary pain. Corneas were harvested for bacterial quantification or for histopathologic analysis. […] Bacterial loads were determined for control corneas (treated with 20% glycerol only) and corneas treated with the topical cholesterol (1% in 20% glycerol). The bacterial load in the control corneas ranged from 2.48 to 6.60 log colony-forming units, while in the treated corneas the load was 3.68 to 6.59 log colony-forming units.

[2] = Test whether cholesterol independently causes inflammation in rabbit corneas (topical drops or intrastromal injection); format: in vivo; conditions: one cornea, examined up to 48 hours post-injection
Experimental: The applications were 30 minutes apart for the first hour, and the remaining applications were 1 hour apart. The corneas were examined periodically for several days. […] The possible effect of cholesterol injected into the corneal stroma was also examined. […] The corneas were examined every 2 hours for the first 8 hours, and then at 24, 30, and 48 hours post-injection.

[3] = test system: S. pneumoniae strains Avery's, R6, and TIGR4; experiment: In vitro incubation of log-phase S. pneumoniae with cholesterol (optical density, plating); format: cell-based, Streptococcus pneumoniae; conditions: 3 hours
Experimental: To determine if cholesterol is bactericidal, log-phase S. pneumoniae were incubated with cholesterol. Three S. pneumoniae strains, Avery's, R6, and TIGR4, were diluted from overnight cultures and grown to log phase (A600=0.3). These bacteria were then incubated with 1% cholesterol in 20% glycerol, 20% glycerol alone, or PBS. The optical density of each strain was determined once per hour for 3 hours, and bacterial loads were determined by plating dilutions of the bacteria onto chocolate agar. […] While cholesterol prevented growth in vitro (outside the cornea), cholesterol had no effect on bacterial growth in the cornea. (See above). Topical application of cholesterol could be used to decrease the numbers of S. pneumoniae on the outside surface of the cornea, and inhibit bacterial infiltration of the corneal surface.

Staphylococcus aureus = experiment: Rabbit Staphylococcus aureus keratitis treated with cholesterol; format: in vivo; conditions: cholesterol 1% in 20% glycerol
alpha-toxin = alpha-toxin (Staphylococcus aureus, UniProt P09616); conditions: in vivo
alpha-toxin, sequence (P09616 27-319 limits assumed): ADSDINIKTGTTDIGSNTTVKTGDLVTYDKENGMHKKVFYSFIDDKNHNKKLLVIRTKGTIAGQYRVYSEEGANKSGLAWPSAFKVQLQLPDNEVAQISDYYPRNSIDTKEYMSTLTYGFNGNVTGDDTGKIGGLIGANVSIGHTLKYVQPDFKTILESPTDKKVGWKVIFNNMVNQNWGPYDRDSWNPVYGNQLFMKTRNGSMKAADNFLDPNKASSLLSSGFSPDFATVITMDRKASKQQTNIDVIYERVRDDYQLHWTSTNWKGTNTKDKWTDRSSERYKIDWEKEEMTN

[4] = test system: encapsulated S. pneumoniae; experiment: Rabbit S. pneumoniae keratitis, slit lamp examination (SLE) score; conditions: topical 1% cholesterol in 20% glycerol, 20 and 24 hours post-infection

Question: With `CC(C)CCC[C@@H](C)[C@H]1CC[C@H]2[C@@H]3CC=C4C[C@@H](O)CC[C@]4(C)[C@H]3CC[C@]12C` [cholesterol] as the compound, how does the “bactericidal effect on bacteria once inside the cornea” value [1] read?
Answer: does not have a bactericidal effect

Question: What about the “inflammation or adverse effect after injection into corneal stroma” value ([2]; […]) of the same compound?
Answer: No inflammation or adverse effect was observed

Question: And the “inflammation or adverse effect after injection into corneal stroma” value ([2]; injection of 0.5% cholesterol in 10% glycerol)?
Answer: No inflammation or adverse effect was observed

Question: What about the “effect on bacterial growth in vitro” value ([3]; strain Avery's, 1% cholesterol in 20% glycerol) of the same compound?
Answer: prevented the growth

Question: And the “effect on bacterial growth in vitro” value ([3]; strain R6, 1% cholesterol in 20% glycerol)?
Answer: prevented the growth

Question: What about the “inhibition of damaging effects in S. aureus-infected corneas” value (Staphylococcus aureus) of the same compound?
Answer: ineffective

Question: And the “reduction of pathology associated with alpha-toxin” value (alpha-toxin)?
Answer: ineffective

Question: What about the “corneal severity (SLE), treated versus untreated corneas” value [4] of the same compound?
Answer: essentially the same
